Results as given in patent US7339042B2, “Gene delivery to tumors” (University of Florida Research Foundation, Inc., priority 2003, dated 2008).

Columns and labels:
[1] = tested on: RG2 cells; assay: Fusion peptide cell killing, propidium iodide/FACS viability, RG2 cells; assay type: cell-based, rat; details: peptides in complete media for 1 hr, Table 2
Procedure: (§1) Other experiments were performed using two glioma cell lines, i.e., T98G and RG2. 1×10^6 cells per well were incubated in 6-well plates with peptides in complete media for 1 hr. Cells were removed from the plate using a cell stripper and the percentage of viable cells was determined by staining with propidium iodide and analyzing by fluorescence activated cell sorting (FACS).
(§2) There are 4 conserved amino acid differences between the rat and human CDKI sequence. Both sequences were attached to Tat and tested for cell killing activity in the rat glioma RG2 cells. Also the effect of orientation of the Tat and CDKI domains were tested. RG2 cells were plated on 6 well plates at approximately 70% confluency. Each of the peptides was added to the wells with increasing concentration. After 1 hr, cells were removed from the plates, washed 2× with PBS, stained with propidium iodide and analyzed by FACS for viable cells.
(§3) Cell viability studies were performed by plating the cells under the same conditions as the uptake studies. Cells were incubated with fluorescent peptides for 1 hr at 37° C. The cells were removed from the plate using cell striper. They were labeled with propidium iodide and fluorescein-AM. Percent PI positive cells were determined by FACS.
(§4) The cytotoxicity of the chimeric peptides was characterized using a cell viability assay. Peptides were added to cells at a fixed concentration. After a 30-minute incubation, cells were removed from the plate, stained with propidium iodide and the % positive cells were determined by FACS (fluorescent activated cell scanning). The test conditions were Tat, ANT, Tat-P14ARF, ANT-P14ARF and P14ARF. T98G cells were tested along with RG2 cells and A172 cells.

[2] = as above; assay type: cell-based, rat; details: peptides in complete media for 1 hr, Table 2
Procedure: as §1, §2, §3, §4

[3] = tested on: endothelial cells and smooth muscle cells of rat cerebral arteries; assay: Uptake of fluorescent peptides by pressure-mounted rat cerebral arteries; assay type: cell-based; details: intraluminal perfusion of fluorescent peptide
Procedure: Tat-P16 peptides were prepared and labeled with fluorescein for use in uptake studies using intact blood vessels isolated from rat brain. Blood vessels were dissected from rat brain and stabilized in an isolated perfusion system in which vessels were attached on either end to catheters and placed under physiological pressure. Following a 10 minute perfusion of the isolated vessels with flurorescent Tat-P16 peptide (1 μM), vessels were examined for uptake of the peptides. […] Within the endothelial cells, the labeled peptides were seen to be localized to the cell nuclei, further confirming uptake of the peptides by the cells.
The peptides are fairly labile in the media and approximately 50% are degraded upon incubation at 37° C. in complete media (qualitative analysis by PAGE) after 1 hour. […] Uptake of these peptides and cell killing activity was tested in a 3 dimensional organ culture using rat cerebral arteries cultured under physiological pressure and flow. A segment of the rat cerebral artery is surgically removed and placed in ringer's solution. Using a surgical stereoscope, the blood vessel is tied at either end to two cannulas on a teflon stage. Ringer's solution is perfused through the lumen of the vessel at a constant rate that maintains physiologic hydrostatic pressure. The fluorescent peptide was introduced intraluminally by perfusing a 1 μM solution of peptide through the lumen over a 10 minute period.
Rats were anesthetized by intraperitoneal injection of pentobarbital sodium (160 mg/kg) and killed by decapitation. The brain was removed and placed in an ice-cold oxygenated physiological cerebrospinal fluid (PCSF, see below for composition). Cerebellar arteries were isolated and mounted in an arteriograph as described previously (Knot and Nelson 1998). The arteriograph was placed on an inverted microscope and the artery was visualized with a monochrome CCD camera coupled to a calibrated video caliper system to measure arterial diameter. The arteries were slowly pressurized to 70 mmHg under no flow conditions using a pressure servo-null system (Living Systems Inc., Burlington Vt.), and warmed to 37° C. while being continuously superfused (5 ml/min) with PCSF bubbled with 21% O2, 5% CO2, 74% N2 (pH 7.35-7.40 in the bath). […] Myogenic tone is calculated by the following equation: Myogenic tone=(Dp−Da)/Dp×100
In some experiments, the arterial segments were denuded of endothelium by passing an air bubble through the lumen, thus exposing the smooth muscle cells to luminally administered peptides. Constriction to pressure and 60 mM KCl and dilation of arteries with myogenic tone to 16 mM KCl were used as benchmarks of functional arteries. Peptide containing PCSF was perfused intraluminally at an inlet pressure of 70 mmHg with the outlet open, for 20 min and then perfused with normal PCSF. This procedure ensures a 20 min of exposure of the arteries to the peptide.

[4] = tested on: T98G cells, RG2 cells and A172 cells; assay: Cell viability assay of chimeric peptides in three cell types; assay type: cell-based, human and rat; details: fixed concentration, 30-minute incubation
Procedure: Synthetic peptides labeled with an N-terminal fluorescein were synthesized to test the ability of a shuttle domain to enter brain tumor and endothelial cells. The amino acid sequences for the shuttle domain was derived from HIV Tat amino acid 47 to 56 ([…] SEQ ID NO:23)(Robert-Guroff et al., J. Virol. 64:3391-3398, 1990) to which AGGG was added to the N-terminus, and the antennapedia homeodomain from drosophila (ANT) ([…] SEQ ID NO:24) (Astriab-Fisher et al., Pharm. Res., 19:744-754, 2002). A synthetic peptide (PTD-5) reported to have similar properties as Tat and ANT was also tested (Mai J. C. et al, Cancer Res. 2001; 61: 7709-7712.). Uptake was tested in two human glioblastoma cell lines and a rat glioma cell line, the latter being used for the rat brain tumor model. A 1 μM concentration of each peptide was added to 10^6 cells in a 6 well plate. […] The Tat and ANT peptides were doubled in length by the addition of […] (SEQ ID NO: 25), amino acids 42 to 55 from a human cyclin-dependent kinase inhibitor 2A (melanoma, p16, inhibits CDK4) (CDKI), transcript variant 4, mRNA (accession no. NM_058195). […]
The cytotoxicity of the chimeric peptides was characterized using a cell viability assay. […] After a 30-minute incubation, cells were removed from the plate, stained with propidium iodide and the % positive cells were determined by FACS (fluorescent activated cell scanning). […]

Structure (SMILES): C[C@H](N)C(=O)NCC(=O)NCC(=O)NCC(=O)N[C@@H](Cc1ccc(O)cc1)C(=O)NCC(=O)N[C@@H](CCCNC(=N)N)C(=O)N[C@@H](CCCCN)C(=O)N[C@@H](CCCCN)C(=O)N[C@@H](CCCNC(=N)N)C(=O)N[C@@H](CCCNC(=N)N)C(=O)N[C@@H](CCC(N)=O)C(=O)N[C@@H](CCCNC(=N)N)C(=O)N[C@@H](CCCNC(=N)N)C(=O)N[C@@H](CCCNC(=N)N)C(=O)O [Tat]
- % Viable [1]: ineffective
- viability [2]: 94%
- labeling/uptake by endothelial cells [3]: selectively labeling the endothelial nuclei
- labeling/uptake by smooth muscle cells [3]: did not label the smooth muscle cells
- cells killed [4]: No impact on cell viability
